According to patent US6534313B1, “Genetically modified plants having modulated brassinosteroid signaling” (The Salk Institute for Biological Studies, priority 1999, dated 2003):

How the values were obtained:
[1] = system: bas1-DphyB-4 and phyB-4 seedlings; assay: Feeding experiment: metabolism of deuterium-labeled and non-labeled brassinolide in aseptically grown seedlings, GC-MS; type: in vivo; settings: Arabidopsis seedlings, one day, GC-MS comparison with authentic sample
Source text: To test the hypothesis that overexpression of bas1 gene product results in hydroxylation of brassinolide, metabolism of deuterium-labeled and non-labeled brassinolide was examined using aseptically grown seedlings. As possible hydroxylated metabolites of brassinolide, 14-hydroxybrassinolide, 20-hydroxybrassinolide, 25-hydroxybrassinolide, 26-hydroxybrassinolide, and 28-hydroxybrassinolide were chemically synthesized. The possible hydroxylated brassinolide fractions from the feeding experiments were analyzed by gas chromatograph-mass spectrometry (GC-MS) after conversion to methaneboronate-trimethylsilyl derivatives.
In preliminary experiments, bas1-DphyB-4 and phyB-4 seedlings were fed ^2H6-labeled brassinolide (d6-BL) and incubated for one day. […] When BL was fed to the seedlings, 26-OHBL was detected as a metabolite of BL. […] When d6-BL was fed to the seedlings, fragment ions such as m/z 625, 583 and 570 were detected. […]
For brassinosteroid measurements, plants were grown on soil (Neff and Chory, supra) in short day conditions (8 hours of light, […] of dark) for five weeks before rosettes were harvested in liquid nitrogen. […] Brassinosteroids were analyzed according to the methods described by (S. Fujioka et al., Plant Cell 9:1951-1962, 1997). […]
Each fraction was subjected to GC-MS analysis after derivatization. 26-OHBL was detected from retention time of 2-3 min. […]

Arabidopsis seedlings = assay: Brassinolide dose response of seedling hypocotyls and cotyledon petioles; type: in vivo
Source text: FIGS. 3A-C are graphs showing the dose response of hypocotyls of seedlings to brassinosteroid as measured after 6 days on varying levels of brassinolide. […] Col-O=closed circles; phyB-4=open diamonds; bas1-DphyB-4=open circles; BAS1′ antisense line=closed diamonds; and det2-1=open triangles. Error bars represent one standard error from the mean. When no error bars are visible, they are smaller than the symbols.
By contrast, a brassinosteroid biosynthesis mutant det2-1 produced petioles that were shorter than the wild type in the light, while the petioles of phyB-4 mutants were longer than the wild type in the light. In both cases, these phenotypes were rescued by exposure to increasing amounts of brassinosteroids.
(CIDtech Research Inc., Mississauga, Ontario, Canada) 2 mM Brassinolide stock was made by dissolving in 95% (v/v) EtOH and stored at −20° C. The 1 μM solution was made by a 1:2000 fold dilution of the 2 mM stock in standard growth media. All other concentrations including the negative control contained the same amount of EtOH. Light conditions for fluence responses in red and blue light and seedling measurements were performed as described in Neff and Chory, supra. An E30LED growth chamber (Percival Scientific, Boone, IA) supplied far-red light. Far-red fluences were measured with a portable spectroradiometer (model LI-1800, Li-Cor, Inc., Lincoln, Nebr.).

| Compound | metabolite detected after feeding to seedlings [1] | hypocotyl hyper-responsivity to brassinolide (Arabidopsis seedlings; BAS1 antisense lines, grown in the dark, 6 days) | hypocotyl response to brassinolide (Arabidopsis seedlings; BAS1 antisense lines, grown in the light, 6 days) | rosette response to brassinolide (Arabidopsis seedlings; plants overexpressing bas1 (bas1-DphyB-4), white light) |
| --- | --- | --- | --- | --- |
| 2H6-labeled brassinolide [d6-BL] | d6-26-OHBL |  |  |  |
| CC(C)[C@H](C)[C@@H](O)[C@H](O)[C@@H](C)[C@H]1CC[C@H]2[C@@H]3COC(=O)[C@H]4C[C@H](O)[C@H](O)C[C@]4(C)[C@H]3CC[C@]12C [BL, brassinolide] | 26-OHBL | not | hyper-responsivity | insensitive |
